Assay results reported in patent US11707557B2, “Compositions and devices incorporating water-insoluble therapeutic agents and methods of the use thereof” (COOK MEDICAL TECHNOLOGIES LLC, priority 2014, dated 2023).
≈ marks a conversion by molar mass, not a printed value.

Key:
[1] = Drug release from injectable PG:gallate pastes (60:40) into PBS; format: physicochemical; conditions: 60:40 PG:EGCG or PG:tannic acid, 2% w/w drug, PBS pH 7.4, 37° C.
Procedure: Methods: 60:40% w/w PG:EGCG or PG:tannic acid was used in these studies. 588 mg of propylene glycol was weighed into a 20 mL glass vials and 392 of EGCG or tannic acid was added followed by vortexing to distribute and dissolve the gallates. The vials were warmed to 60° C. and vortexed until all the contents were in solution. At this time 20 mg of drug was added (2% w/w) and vortexed until in solution. The following drugs were used: paclitaxel, docetaxel, retinoic acid, amphotericin B, and curcumin. 100 mg of each paste was weighed into the base of a 15 mL glass test tube and 10 mL of phosphate buffered saline was added at pH 7.4 and the tubes were incubated at 37° C. for certain times. All 10 mL of the PBS release media was removed and 1 mL analyzed by HPLC for drug content. 10 mL of fresh PBS was then added to all tubes

pig skin = test system: pig skin
Procedure: Various gallate-containing drug formulations were prepared and applied to ex vivo pig skin samples. Fresh pig skin was obtained from a local butcher, processed within three hours and then frozen. For experiments, the skin was slowly thawed, excess fat removed from the base, and cut into 1×2 cm squares. These squares were mounted and clamped on Franz diffusion cells, which kept the tissue moist and isolated and exposed a 6 mm diameter of the upper skin surface for the application of a drug loaded formulation. Skin samples were then frozen and later cryosectioned in 50 μm slices. The drug in the slices was extracted and measured by HPLC or radioactive doping methods. A drug depth profile was then established for each drug.
1. Formulations containing a drug and a gallate. The drugs were dissolved in ethanol at various concentrations along with either EGCG or TA (500 mg/mL). Each solution was pipetted into 6×5 mm diameter aluminum cups (approximately 3 mm in height) by filling and allowing the ethanol to evaporate at 50° C. until all the solution was used up (80 mg per cup).
2. Formulations containing a drug, propylene glycol (“PG”) and a gallate. 300 mg of propylene glycol was mixed with 200 mg of EGCG or TA until dissolved. Various amounts of drug were added to this mixture and dissolved. 80 mg of the resulting viscous solution was weighed into 6×5 mm aluminum cups.
3. Control Formulations. Control formulations were prepared using Glaxal base and Plogel. Glaxal base is a cream used by compounding pharmacists to manufacture topical formulations of drugs. Plogel is an alternative used for dermal formulations. […] Drug was added to a known weight of Glaxal or Plogel and levigated to produce a standard drug dispersion. These formulations were prepared the evening before the experiment. For some drugs, radioactive drug (where available) was also added as a doping additive to facilitate quantitation in tissues.
Eutectics: In some cases, gallate containing compounds and drugs were formulated in eutectic mixtures. These included a 60:40 (% w/w) mixture of menthol with ibuprofen. These agents acted as a carrier for retinoic acid, which was then dissolved in this liquid. The 3-drug eutectic/solution was then blended into the CMC/poloxamer emulsion containing EGCG (2.5%). […] The emulsion was stabilized with poloxamer.
Example 29. Pig skin studies. Aluminum cups containing drug formulations were inverted on top of the pig skin in the Franz diffusion cell so that the formulation contents were in contact with the skin. […]
Analysis. […] The amount of drug in each group of skin sections was then determined using HPLC methods, or by radioactivity counting on a liquid scintillation counter. The amount of drug in each group of skin sections was expressed as μg/g or mg/g of tissue.

[2] = Drug in EGCG or tannic acid films (optical microscopy, DSC); format: physicochemical
Procedure: Thin films of drugs were cast in either EGCG or tannic acid from ethanol solutions. Drugs in either EGCG or tannic acid were dissolved in ethanol at a final total concentration of 20% w/v and spot pipetted in repeated 10 microliter volumes and allowed to dry between spotting. This allowed a thin film to accumulate and dry. Some solutions contained either glycerol or polyethylene glycol 300 at 10% or 20% w/w to EGCG or tannic acid. The films were allowed to dry and examined by optical microscopy for drug precipitation. Films were allow analyzed by differential scanning calorimetry (DSC) for identify drug crystals.

Caco2 cells = assay: Transport of curcumin through Caco2 cells (transwell); format: in vitro ADME, human; conditions: 3 hours
From the text: Caco2 cells are continuous cells of human epithelial colorectal adenocarcinoma cells. They contain drug efflux proteins and may be used in the same way that MDCK-MDR cells are, i.e. to measure drug accumulation in cells that have the ability to efflux drugs.
Caco2 cells (ATCC, VA, USA) are proliferating gut epithelial cells used throughout the pharmaceutical sciences as a model of oral drug availability. These cells may be grown in cell culture on membranes where they align with an apical external surface (equivalent to the gut lumen) and a basolateral lower surface that is equivalent to the cell side adjacent to the blood capillaries. When an EGCG curcumin solution was placed in the upper portion of a transwell containing these cells on a membrane for three hours, large amounts of curcumin either passed through or accumulated within the caco2 cells.
Caco2 cells were seeded onto 0.3 um transwell membranes and left to grow to confluence for 3 days. A conductivity electrode measured the Transcellular electrical resistance value over the next few days and when it had reached […] (tight junctions established) the experiment began. A solution of curcumin (250 microgram per ml) in EGCG (25 mg per ml) in Hanks buffer pH 7.4. was added to the top well for 3 hours. […] All solutions were then analyzed for curcumin content using uv-vis absorbance spectroscopy at 430 nm.

[3] = Drug concentrations obtained using EGCG at 50 mg per ml (microscopic check for particulates); format: physicochemical
Procedure: EGCG at 50 mg/ml and drug at approximately 250 micrograms per ml were dissolved in the listed solvent and dried down in a test tube under nitrogen. 1 ml of water was added, followed by vortexing. The solutions were examined for particulate matter under a microscope. If no particulates were present, the process was repeated with a higher drug amount. All the tested drugs remained in solution at the listed concentrations except for nystatin and hesperidin.

[4] = 24 h

In the case of `COc1cc(/C=C/C(=O)CC(=O)/C=C/c2ccc(O)c(OC)c2)ccc1O` [curcumin], the solubility (physchem; aqueous with cosolvent or surfactant or cyclodextrin, thermodynamic from solid, drug concentration solubilised at maximum EGCG concentration) was ~4.7 mg/mL (≈ 12.8 mM), the solubility (physchem; aqueous with cosolvent or surfactant or cyclodextrin, thermodynamic from solid, drug concentration solubilised at maximum tannic acid concentration) was ~12 mg/mL (≈ 32.6 mM) and the solubility (physchem; water, free solubility in water) was < 0.001 mg/mL. The “drug release from PG:gallate paste” value [1] was “relatively controlled release of the drug over 24 hours”, the “drug uptake by pig skin” value (pig skin) was “essentially no drug uptake” and the “drug loading at which drug precipitated out of film” value [2] was “approximately 5 % w/w”. For the same molecule, the “curcumin uptake and transport through the cells” value (Caco2 cells; curcumin 250 microgram per ml in EGCG 25 mg per ml, versus diblock copolymer) was “much higher levels”, the “curcumin passing through and entering the cells” value (Caco2 cells; diblock copolymer micellar solution, 250 micrograms/ml) was “small amount” and the Visual appearance [3] was “clear”. For the same molecule, the “Drug Concentration” value ([3]; 1 ml of water) was 250 microgram/ml, the Particulates present ([3]; under a microscope) was “no” and the “stability of EGCG solutions of the drug” value [4] was “stable for 24 hours”. For the same molecule, the “stability of tannic acid solutions of the drug” value [4] was “stable for 24 hours”.
